In publication PMC8464955, “Prediction of Drug–Drug Interaction Potential of Tegoprazan Using Physiologically Based Pharmacokinetic Modeling and Simulation” (Pharmaceutics, 2021):

Tested on: CYP3A4
Test: Inhibition of tegoprazan metabolism in human liver microsomes by CYP inhibitors
Format: in vitro ADME
Settings: in-house data
Text: The major metabolic pathway of tegoprazan is the liver, and a negligible amount is excreted by urine. Both in vitro and clinical results have elucidated that tegoprazan is a potential substrate of cytochrome P450 (CYP) 3A4. […] According to the label of tegoprazan, systemic exposure to tegoprazan increases when tegoprazan is co-administered with clarithromycin. Based on the in vitro and clinical data, it can be inferred that drug–drug interaction (DDI) between tegoprazan and CYP3A4 inhibitor may occur. However, the clinical DDI studies of tegoprazan conducted so far have been limited to the DDI between tegoprazan and clarithromycin or clarithromycin and amoxicillin, because tegoprazan is likely to be administered with these medications for Helicobacter pylori eradication. Considering the substantial prevalence of acid-related diseases, tegoprazan is likely to be administered in combination with various drugs. […]
The elimination of the PBPK model consisted of enzyme kinetic and renal clearance (Table 1). Intrinsic clearances (CLint) of tegoprazan by various CYPs were determined by an in vitro study that measured the fraction of CLint inhibited by adding the inhibitors of CYP1A2, CYP2C9, CYP2C19, CYP2D6, and CYP3A to human liver microsomes (in-house data). […]

For `CC(=O)N1CCN(c2ccc(OCC3COC(Cn4ccnc4)(c4ccc(Cl)cc4Cl)O3)cc2)CC1` (stereo not shown) [ketoconazole], the “effect of CYP inhibitor on the metabolism of tegoprazan” value was “significantly inhibited”.
